Data as given in ChEMBL document CHEMBL4888484, “Replenishing the malaria drug discovery pipeline: Screening and hit evaluation of the MMV Hit Generation Library 1 (HGL1) against asexual blood stage Plasmodium falciparum ,using a nano luciferase reporter read-out” (2022).

Key:
[1] = tested on: Plasmodium falciparum; test: Hit confirmation in dose-response curve in Dd2 pLDH assay, at 72h; format: functional, organism-based; design: timepoint 72 hour; conditions: Dd2, Erythrocyte
[2] = tested on: Plasmodium falciparum; test: Hit confirmation in dose-response curve in NF54 nanoGlo assay, at 12h; format: functional, organism-based, Erythrocyte; design: timepoint 12 hour; conditions: Plasmodium falciparum, NF54, Erythrocyte, 12 h
[3] = tested on: Plasmodium falciparum; test: Hit confirmation in dose-response curve in NF54 pLDH assay, at 72h; format: functional, organism-based; design: timepoint 72 hour; conditions: NF54, Erythrocyte
[4] = tested on: Plasmodium falciparum; test: Hit confirmation in dose-response curve in NF54 nanoGlo assay, at 72h; format: functional, organism-based, Erythrocyte; design: timepoint 72 hour; conditions: Plasmodium falciparum, NF54, Erythrocyte, 72 h
[5] = Hit confirmation in dose-response curve in HepG2 cytotoxicity assay, at 72h; format: toxicity, cell-based; design: timepoint 72 hour; conditions: human, HepG2 cells

Row | Compound | IC50 [1] [µM] | IC50 [2] [µM] | IC50 [3] [µM] | IC50 [4] [µM] | IC50 at 72 h [5] [µM]
1 | Cc1ccc(S(=O)(=O)Nc2c(S(=O)(=O)c3ccc(C)cc3)c3nc4ccccc4nc3n2CCC(C)C)cc1 | 4.27 | 4.79 | 8.32 | 2.51 | > 10
2 | C[n+]1ccc(-c2ncc(-c3ccccc3)o2)c2ccccc21 | 1.51 | 6.17 | 1.41 | 0.759 | > 10
3 | Cc1ccc2c(c1)c1c(n2S(=O)(=O)c2ccc(C(C)(C)C)cc2)CCCN(C)C1 | 1.35 | > 10 | 2.29 | 1.48 | > 10
4 | CC(=O)Nc1c(-c2ccc(C)cc2)c(C)nn1-c1ccc(C(=O)Nc2cc(C)ccn2)cc1 | 7.41 | > 10 | 9.55 | 2.75 | > 10
5 | CC[n+]1ccc(-c2ncc(-c3ccc(C(C)(C)C)cc3)o2)cc1 | 0.417 | > 10 | 0.182 | 0.589 | > 10
6 | COc1ccc(CNCCC2C(C)CN(C)C(C)C2Cc2ccccc2)cc1 (stereo not given) | 2.63 | 4.07 | 3.63 | 1.66 | > 10
7 | C=CCCC(CN1C[C@H]2CC=CC[C@H]2C1)Oc1ncc(F)cn1 (stereo not given in full) | > 10 | 7.41 | 0.0224 | 0.0178 | > 10
8 | Cc1c(C)n(CC(O)CNC(C)c2ccccc2)c2c(Cl)cccc12 (stereo not given) | 8.51 | 3.16 | 9.77 | 2 | 10
9 | COCCNC(=O)c1ccc(-n2nc(-c3nnc(C)o3)c(C)c2-c2ccc(OC)cc2)cc1 | > 10 | 3.63 | > 10 | 3.24 | > 10
10 | COCCCn1c(NS(=O)(=O)c2ccccc2)c(S(=O)(=O)c2ccc(C)cc2)c2nc3ccccc3nc21 | 8.91 | 6.17 | > 10 | 4.68 | > 10
11 | COc1ccc(-c2cc(-c3ccccc3)nc(N3CCC(C)CC3)n2)cc1 | > 10 | > 10 | > 10 | 9.55 | > 10
12 | COc1cc(CNCCCN2CCOCC2)ccc1OCc1ccc(Cl)cc1 | 2.95 | 6.03 | 4.47 | 2.88 | > 10
13 | CC1CCN(Cc2ccc(CNCc3c[nH]nc3-c3ccc(F)cc3)cc2)CC1 | 3.55 | 7.94 | 6.61 | 3.47 | > 10
14 | CCc1c(C)nn2c(c1C)c(-c1ccccc1)[n+]1c(C)c(CC)c(C)nc21 | 1.48 | > 10 | 2.19 | 1.7 | > 10
15 | Cc1ccc(S(=O)(=O)c2c(NS(=O)(=O)c3ccccc3)n(CCc3ccccc3)c3nc4ccccc4nc23)cc1 | 3.02 | 1.91 | 3.8 | 1.45 | > 10
16 | Fc1ccccc1N1CCN(C2CCN(Cc3c[nH]c4ccccc34)CC2)CC1 | 3.24 | > 10 | 4.07 | 1.82 | > 10
17 | Cc1ccc(C2=C[C@@H](c3ccc(Cl)cc3)n3nc(NC(=O)c4ccccc4)nc3N2)cc1 | 2.63 | 2.14 | 3.47 | 1.74 | > 10
18 | CCOC(=O)c1cc(F)cc(S(=O)(=O)Nc2ccnc3ncnn23)c1 | > 10 | 1.35 | > 10 | 5.89 | > 10

Row | Compound | IC50 [1] [µM] | IC50 [2] [µM] | IC50 [3] [µM] | IC50 [4] [µM] | IC50 at 72 h [5] [µM]
19 | COC1CCCC1NC(=O)Nc1ncc(Br)cc1C (stereo not given) | 2.29 | 6.76 | 1.38 | 2 | > 10
20 | COc1cccc(S(=O)(=O)N2CCCN(Cc3ccncc3)[C@H](c3ccccc3)CC(=O)NCC2)c1 | 2.19 | 2.82 | 3.24 | 0.933 | > 10
21 | O=C(CCn1c(=O)[nH]c2ccsc2c1=O)NCc1ccccc1 | > 10 | > 10 | > 10 | 9.12 | > 10
22 | CC[C@@]1(C)CCCN(C(=O)Cc2c(C)noc2Cl)C1 | 4.17 | 4.07 | 4.37 | 1.51 | > 10
23 | Cc1ccc(N2C(=O)C[C@]3(CC3(c3ccccc3)c3ccccc3)C2=O)cc1 | > 10 | 0.525 | > 10 | 1.51 | > 10
24 | CCc1nc2cc(N3CCC(C(=O)Nc4ccc5c(c4)OCO5)CC3)cnc2nc1CC | > 10 | 0.417 | > 10 | 1.29 | > 10
25 | CN(C(=O)C(C)(C)Nc1ncc(C(F)(F)F)cc1Cl)c1ccc(Cl)cc1 | > 10 | 1.55 | > 10 | 3.55 | > 10
26 | CCN(CC)C(=O)c1cnc2snc(C)c2c1N1CCC(C(=O)Nc2c(C)cc(C)cc2C)CC1 | > 10 | 5.89 | > 10 | 3.24 | > 10
27 | O=C(Nc1c(S(=O)(=O)c2ccccc2)c2nc3ccccc3nc2n1CCc1ccccc1)c1ccc(Cl)cc1 | 5.62 | 0.603 | 11.2 | 1.1 | > 10
28 | CN1CCC(N2CCN(Cc3ccc4cc(O)ccc4c3)CC2)CC1 | 1.38 | 4.68 | 1.91 | 1.66 | > 10
29 | Cc1ccc(C(=O)N(Cc2cccc(F)c2)c2ccc(CC(=O)N[C@@H](C)c3ccccc3)cc2)cc1 | 3.09 | > 10 | 4.27 | 1.66 | > 10
30 | CC(=O)c1cccc(NC(=O)[C@@]23CCC(=O)N2c2ccccc2C(=O)N3C)c1 | 2.82 | 3.09 | 5.89 | 1.91 | > 10
31 | CCN1CCN(C(=O)c2ccccc2N2CCC(NC(=O)c3cccc(Br)c3)CC2)CC1 | 5.37 | > 10 | 1.66 | 2.51 | > 10
32 | CCn1ncc(CN2CC[C@@H]3C(=O)NCCCCCCN(Cc4ccncc4)[C@@H]3C2)c1C | 3.63 | > 10 | 1.26 | 3.72 | > 10
33 | COc1nc(NC[C@H]2CCCN2C(C)C)ncc1F | > 10 | > 10 | 1.7 | 1.32 | > 10
34 | Cc1cc(N2CCC3(CCCN3Cc3cc(C#N)n(C)c3C)CC2)c2ccccc2n1 | 1.86 | > 10 | 3.39 | 1.95 | > 10
35 | COc1ccc(-c2c(C(F)(F)F)n[nH]c2-c2ccc(OCc3ccccc3F)cc2O)cc1 | 3.02 | 2.88 | 6.31 | 1.66 | > 10
36 | COc1ccc(CCNC(=O)c2cnn3c4c(cnc23)C[C@@H](C)CC4)cc1OC | > 10 | 1.26 | > 10 | 3.02 | > 10
